According to ChEMBL document CHEMBL6103672, “Discovery of HMPL-306 (Ranosidenib), a New Potent and Selective Dual Inhibitor of Mutant IDH1 and 2 in Clinical Development for Cancer Treatment” (ACS Med Chem Lett, 2025):

Tests used:
[1] = Half life in male ICR mouse at 10 mg/kg, po measured after 8 hrs by LC/MS/MS analysis; type: ADME, organism-based; details: in vivo
[2] = Inhibition of IDH2 R140Q mutant in human U-87 MG cells incubated for 72 hrs by measuring 2-HG production by fluorescence based analysis; type: functional, cell-based, U-87MG ATCC; details: Homo sapiens, U-87 MG, 72 h
[3] = AUC(0 to t) in male ICR mouse at 10 mg/kg, po measured after 8 hrs by LC/MS/MS analysis; type: ADME, organism-based; details: in vivo
[4] = Volume of distribution at steady state in male ICR mouse at 2.5 mg/kg, iv measured after 8 hrs by LC/MS/MS analysis; type: ADME, organism-based; details: in vivo, read-out: Vdss
[5] = Clearance in male ICR mouse at 2.5 mg/kg, iv measured after 8 hrs by LC/MS/MS analysis; type: ADME, organism-based; details: in vivo
[6] = Apparent permeability across basolateral to apical side in human Caco-2 cells at 10 uM incubated for 1 hrs by LC-MS/MS analysis
[7] = Inhibition of IDH1 R132H mutant in human U-87 MG cells incubated for 72 hrs by measuring 2-HG production by fluorescence based analysis; type: functional, cell-based, U-87MG ATCC; details: Homo sapiens, U-87 MG, 72 h
[8] = Metabolic stability in male ICR mouse liver microsomes assessed as parent compound remaining at 1 uM measured after 30 mins in presence of NADPH by LC-MS analysis; type: ADME, Microsome; details: read-out: Stability
[9] = Apparent permeability across apical to basolateral side in human Caco-2 cells at 10 uM incubated for 1 hrs by LC-MS/MS analysis
[10] = Cmax in male ICR mouse at 10 mg/kg, po measured after 8 hrs by LC/MS/MS analysis; type: ADME, organism-based; details: in vivo
[11] = AUC(0 to infinity) in male ICR mouse at 10 mg/kg, po measured after 8 hrs by LC/MS/MS analysis; type: ADME, organism-based; details: in vivo
[12] = Metabolic stability in male SD rat liver microsomes assessed as parent compound remaining at 1 uM measured after 30 mins in presence of NADPH by LC-MS analysis; type: ADME, Microsome; details: Sprague-Dawley, read-out: Stability
[13] = Oral bioavailability in male ICR mouse at 10 mg/kg measured after 8 hrs by LC/MS/MS analysis; type: ADME, organism-based; details: in vivo
[14] = AUC(0 to t) in male ICR mouse at 10 mg/kg, po measured upto 24 hrs by LC/MS/MS analysis; type: ADME, organism-based; details: in vivo
[15] = In vivo inhibition of 2-HG in BALB/c nude mouse xenografted with human U-87 MG cells harboring IDH2 R140Q mutant at 25 mg/kg, po measured after 40 hrs post dose; type: functional
[16] = molecular target: Isocitrate dehydrogenase [NADP], mitochondrial (Homo sapiens, UniProt P48735, R140Q); experiment: Inhibition of IDH2 R140Q mutant (unknown origin) using alpha-ketoglutarate as substrate preincubated with compound for 16 hrs followed by substrate addition and measured after 1 hr in presence of NADPH by fluorescence based analysis
UGT1A1 = molecular target: T1, UGT1A1 (Homo sapiens, UniProt P22309); experiment: Inhibition of UGT1A1 (unknown origin) at 10 uM relative to control; type: ADME
T1 sequence (P22309 whole entry): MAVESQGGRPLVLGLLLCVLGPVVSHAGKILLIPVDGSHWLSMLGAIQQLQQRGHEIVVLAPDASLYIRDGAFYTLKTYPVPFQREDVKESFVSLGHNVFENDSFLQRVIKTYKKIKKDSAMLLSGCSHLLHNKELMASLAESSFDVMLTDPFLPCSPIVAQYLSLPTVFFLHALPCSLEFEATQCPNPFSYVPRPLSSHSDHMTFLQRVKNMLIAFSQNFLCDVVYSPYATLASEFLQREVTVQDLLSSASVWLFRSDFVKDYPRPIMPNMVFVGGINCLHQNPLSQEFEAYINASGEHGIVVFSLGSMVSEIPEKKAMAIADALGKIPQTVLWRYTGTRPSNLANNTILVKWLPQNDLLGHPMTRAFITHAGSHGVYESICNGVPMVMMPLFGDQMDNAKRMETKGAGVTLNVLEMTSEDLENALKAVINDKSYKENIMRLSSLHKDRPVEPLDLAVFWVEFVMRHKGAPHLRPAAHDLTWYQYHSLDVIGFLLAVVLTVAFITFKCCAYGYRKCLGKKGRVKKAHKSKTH

[17] = Inhibition of IDH2 R140Q mutant in human TF-1 cells incubated for 72 hrs by measuring 2-HG production by fluorescence based analysis; type: functional, cell-based; details: TF-1, 72 h
[18] = In vivo inhibition of 2-HG in BALB/c nude mouse xenografted with human U-87 MG cells harboring IDH2 R140Q mutant at 25 mg/kg, po measured after 24 hrs post dose; type: functional
[19] = Inhibition of IDH2 R172K mutant in human HEK293 cells incubated for 72 hrs by measuring 2-HG production by fluorescence based analysis; type: functional, cell-based; details: HEK293, 72 h
Adenosine receptor A3 = molecular target: T2, Adenosine receptor A3 (Homo sapiens, UniProt P0DMS8); experiment: Inhibition of adenosine A3 receptor (unknown origin); type: toxicity
T2 sequence (P0DMS8 whole entry): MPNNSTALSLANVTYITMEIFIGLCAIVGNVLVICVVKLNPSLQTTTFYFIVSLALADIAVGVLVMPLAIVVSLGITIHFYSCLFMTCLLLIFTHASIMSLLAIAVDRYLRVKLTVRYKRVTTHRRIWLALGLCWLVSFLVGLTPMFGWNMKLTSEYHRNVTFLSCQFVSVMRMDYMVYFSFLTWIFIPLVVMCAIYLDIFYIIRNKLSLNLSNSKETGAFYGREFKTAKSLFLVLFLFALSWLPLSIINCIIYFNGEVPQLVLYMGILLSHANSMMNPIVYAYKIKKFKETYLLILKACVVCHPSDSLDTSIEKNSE

[20] = Inhibition of IDH1 R132C mutant in human HT-1080 cells incubated for 72 hrs by measuring 2-HG production by fluorescence based analysis; type: functional, cell-based; details: HT-1080, 72 h
[21] = In vivo inhibition of 2-HG in BALB/c nude mouse xenografted with human HT-1080 cells harboring IDH1 R132C mutant at 50 mg/kg, po measured after 40 hrs post dose; type: functional
[22] = Inhibition of IDH1 R132H mutant in human TF-1 cells incubated for 72 hrs by measuring 2-HG production by fluorescence based analysis; type: functional, cell-based; details: TF-1, 72 h
[23] = In vivo inhibition of 2-HG in BALB/c nude mouse xenografted with human HT-1080 cells harboring IDH1 R132C mutant at 50 mg/kg, po measured after 24 hrs post dose; type: functional
[24] = Ratio of drug concentration in brain to plasma of BALB/c nude mouse xenografted with human U-87 MG cells harboring IDH2 R140Q mutant at 50 mg/kg measured after 24 hrs by LC/MS/MS analysis; type: ADME, organism-based; details: read-out: BPR
[25] = Ratio of drug concentration in brain to plasma of BALB/c nude mouse xenografted with human U-87 MG cells harboring IDH2 R140Q mutant at 50 mg/kg measured after 16 hrs by LC/MS/MS analysis; type: ADME, organism-based; details: read-out: BPR

Isocitrate dehydrogenase [NADP], mitochondrial, sequence (P48735 40-452 R140Q limits assumed): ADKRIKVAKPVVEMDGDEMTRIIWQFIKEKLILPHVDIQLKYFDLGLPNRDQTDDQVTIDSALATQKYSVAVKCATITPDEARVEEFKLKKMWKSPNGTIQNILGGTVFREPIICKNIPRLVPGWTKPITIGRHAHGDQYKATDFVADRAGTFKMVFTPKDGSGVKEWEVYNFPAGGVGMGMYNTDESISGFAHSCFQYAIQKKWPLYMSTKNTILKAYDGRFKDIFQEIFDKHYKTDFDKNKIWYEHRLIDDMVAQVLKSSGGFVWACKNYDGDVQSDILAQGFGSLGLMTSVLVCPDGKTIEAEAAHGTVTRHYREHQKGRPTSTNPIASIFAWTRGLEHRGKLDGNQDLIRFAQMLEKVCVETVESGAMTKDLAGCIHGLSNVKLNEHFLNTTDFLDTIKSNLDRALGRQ

Row | Compound | half-life [1] [min] | IC50 [2] [nM] | Vd [4] [L/kg] | clearance [5] [mL/min/kg] | IC50 [7] [nM] | Cmax [10] [ng/mL] | AUC(0-inf) [11] [ng·h/mL] | bioavailability [13] [%] | AUC(0-t) at 24 h [14] [ng·h/mL] | further results
1 | C[C@@H](Nc1nc(N[C@H](C)C(F)(F)F)nc(C2=C(F)[C@@H](O)CCC2)n1)C(F)(F)F | 120 | 42 | 1.16 | 14.1 | 100 | 4950 | 15800 | 134 |  | AUC(0-t) at 8 h [3]: 14800 ng·h/mL; Papp B→A at 1 h, 10 µM [6]: 25.9 ×10⁻⁶ cm/s; remaining at 0.5 h, 1 µM [8]: 86.2%; Papp A→B at 1 h, 10 µM [9]: 46.8 ×10⁻⁶ cm/s; remaining at 0.5 h, 1 µM [12]: 92.7%
2 | CC(C)(O)CNc1nc(Nc2ccnc(C(F)(F)F)c2)nc(-c2cccc(C(F)(F)F)n2)n1 [ENASIDENIB] | 198 | 43 | 1.72 | 6.9 |  | 1870 | 23000 | 95.1 | 22900 | inhibition (INH) [15]: 37%; IC50 [16]: 37 nM; inhibition at 10 µM (UGT1A1): 76.1%; IC50 [17]: 55 nM; inhibition (INH) [18]: 87%; IC50 [19]: 5.17 µM; IC50 (Adenosine receptor A3): 12 nM
3 | N#Cc1ccnc(N2C(=O)CC[C@H]2C(=O)N(c2cncc(F)c2)[C@H](C(=O)NC2CC(F)(F)C2)c2ccccc2Cl)c1 [IVOSIDENIB] | 156 |  | 1.94 | 15.2 | 32 | 1270 | 7100 | 64.5 | 7090 | IC50 [20]: 9 nM; inhibition in vivo at 50 mg/kg [21]: 50%; IC50 [22]: 68 nM; inhibition in vivo at 50 mg/kg [23]: 78%
4 | C[C@@H](Nc1nc(N[C@H](C)C(F)(F)F)nc(-c2cccc(Cl)n2)n1)C(F)(F)F [VORASIDENIB] |  |  |  |  |  |  |  |  |  | Kp at 24 h [24]: 1.2; Kp at 16 h [25]: 1.4
